Reference: publication PMC12135066, “Design and Preclinical Evaluation of Novel uPAR-Targeting Radiopeptides Modified with an Albumin-Binding Entity” (Molecular Pharmaceutics, 2025)

System: mouse serum albumin (MSA)
Experiment: Albumin-binding properties in mouse blood plasma (ultrafiltration assay)
Settings: for Relative albumin-binding affinity, mouse blood plasma: ultrafiltration (Amicon, 10 kDa), mouse blood plasma dilutions in PBS pH 7.4, [MSA]-to-[radiopeptide] 0.01–12500, 0.006 nmol, 37 °C 30 min, γ-counter, inverse ratio of B50, [177Lu]Lu-uPAR-01 set as 1.00, average curve of 3 experiments
Description: The relative albumin-binding affinities of the radiopeptides in mouse and human blood plasma were determined using an ultrafiltration assay with Amicon centrifugal filters (cutoff of 10 kDa; Merck Millipore), as previously reported (Supporting Information). A fixed amount of the respective radiopeptide (15 μL, ∼300 kBq, 0.006 nmol) was added to a defined volume (150 μL) of mouse and human blood plasma dilutions to obtain [mouse serum albumin (MSA)]-to-[radiopeptide] and [human serum albumin (HSA)]-to-[radiopeptide] molar concentration ratios of 0.01–12,500 and 0.01–20,000, respectively. The data were analyzed using a semilogarithmic Hill plot with the maximum binding set as 100% (GraphPad Prism software, version 8.3.1).
Determination of the Albumin-Binding Properties
Purpose: The radiopeptides were investigated with regard to their albumin-binding capabilities in vitro
as a measure to predict blood retention in vivo.
Methods: The relative albumin-binding affinity of the radiopeptides in mouse blood plasma (Rockland
Immunochemicals, Inc., U.S.A.) and human blood plasma (Stiftung Blutspende SRK Aargau-
Solothurn, Switzerland) were determined using an ultrafiltration method. The amount of mouse serum
albumin (MSA) and human serum albumin (HSA) in mouse and human blood plasma was defined as
550 μM and 800 μM, respectively, based on measurements using a dry chemistry analyzer (DRI-CHEM
4000i, FUJIFILM, Japan). A fixed amount of radiopeptide (50 MBq/nmol, ~300 kBq, 15 μL, 0.006
nmol) was added to a defined volume (150 μL) of mouse and human blood plasma and various dilutions
thereof in PBS pH 7.4, resulting in defined [MSA]-to-[radiopeptide] or [HSA]-to-[radiopeptide] molar
concentration ratios ranging from 0.01 ‒12500 and 0.01‒20000, respectively, followed by incubation of
the samples at 37 °C for 30 min. Ice-cold PBS (150 µL, pH 7.4) was added before loading the blood
plasma samples on Amicon centrifugal filters (cut -off of 10 kDa; Merck Millipore) followed by
centrifugation (14000 rcf, 30 min, 4 °C) to allow the separation of the plasma protein -bound from the
plasma-unbound (free) fractions of each sample. The inserts of the filter devices were inverted and centrifuged at 200 rcf for 3 min to recover the protein -bound radiopeptide. The activity in the filtrate
and filter unit was measured in a γ-counter (1480 Wizard, PerkinElmer) and the counts were combined
assuming that the fraction retained in the filter membrane was not bound to proteins. The protein -bound
fraction was expressed as percentage of the whole activity (i.e. plasma protein -bound activity, activity
measured in the filtrate and activity measured in the filter (set as 100%) ). The data were analyzed using
a semi-logarithmic plot assuming a maximum binding of 100%. The Hill equation was fitted to the data
points and the half -maximum binding ( B50) based on the average curve obtained from three independent
experiments (GraphPad Prism software, version 8.3 .1). The relative albumin-binding affinit ies of the
reference compound, whose relative binding affinity was set as 1.0. The results were presented as the
B50 value obtained from the average curve from 3 independent experiments.

Compound | fold lower albumin-binding affinity than [177Lu]Lu-uPAR-01 (mouse blood plasma, ultrafiltration) | Relative albumin-binding affinity, mouse blood plasma
CC(C)C[C@H](NC(=O)[C@H](Cc1ccc(O)cc1)NC(=O)[C@@H](CCCNC(=N)N)NC(=O)[C@@H](CO)NC(=O)[C@H](Cc1ccccc1)NC(=O)[C@H](CC1CCCCC1)NC(=O)[C@H](CC(=O)O)NC(=O)CCOCCOCCOCCOCCNC(=O)[C@H](CCCCNC(=O)CCCc1ccc(I)cc1)NC(=O)CN1CCN(CC(=O)O)CCN(CC(=O)O)CCN(CC(=O)O)CC1)C(=O)N[C@@H](Cc1c[nH]c2ccccc12)C(=O)N[C@@H](CO)C(N)=O [[^177Lu]Lu-uPAR-05, metal not drawn] | 1.6 fold | 0.61
CC(C)C[C@H](NC(=O)[C@H](Cc1ccc(O)cc1)NC(=O)[C@@H](CCCNC(=N)N)NC(=O)[C@@H](CO)NC(=O)[C@H](Cc1ccccc1)NC(=O)[C@H](CC1CCCCC1)NC(=O)[C@H](CC(=O)O)NC(=O)[C@H](CCCCNC(=O)CCCc1ccc(I)cc1)NC(=O)[C@@H](N)CCCCNC(=O)CN1CCN(CC(=O)O)CCN(CC(=O)O)CCN(CC(=O)O)CC1)C(=O)N[C@@H](Cc1c[nH]c2ccccc12)C(=O)N[C@@H](CO)C(N)=O [[^177Lu]Lu-uPAR-04, metal not drawn] |  | 1.08
CC(C)C[C@H](NC(=O)[C@H](Cc1ccc(O)cc1)NC(=O)[C@@H](CCCNC(=N)N)NC(=O)[C@@H](CO)NC(=O)[C@H](Cc1ccccc1)NC(=O)[C@H](CC1CCCCC1)NC(=O)[C@H](CC(=O)O)NC(=O)[C@H](CCCCNC(=O)CCCc1ccc(I)cc1)NC(=O)CN1CCN(CC(=O)O)CCN(CC(=O)O)CCN(CC(=O)O)CC1)C(=O)N[C@@H](Cc1c[nH]c2ccccc12)C(=O)N[C@@H](CO)C(N)=O [[^177Lu]Lu-uPAR-01, metal not drawn] |  | 1.00
CC(C)C[C@H](NC(=O)[C@H](Cc1ccc(O)cc1)NC(=O)[C@@H](CCCNC(=N)N)NC(=O)[C@@H](CO)NC(=O)[C@H](Cc1ccccc1)NC(=O)[C@H](CC1CCCCC1)NC(=O)[C@H](CC(=O)O)NC(=O)CN1CCN(CC(=O)O)CCN(CC(=O)O)CCN(CC(=O)O)CC1)C(=O)N[C@@H](Cc1c[nH]c2ccccc12)C(=O)N[C@@H](CO)C(N)=O [[^177Lu]Lu-DOTA-AE105, metal not drawn, reference compound] |  | 0.02
